{"source": "patent US20060004197A1", "about": "“Sulfonamide-based compounds as protein tyrosine kinase inhibitors” (priority 2004, published 2006)", "molecular_target": "T1, Recombinant human Src (Homo sapiens, UniProt P12931)", "T1 construct": "made in house; host or cells: baculovirus-insect cell system", "T1 sequence (P12931 whole entry)": "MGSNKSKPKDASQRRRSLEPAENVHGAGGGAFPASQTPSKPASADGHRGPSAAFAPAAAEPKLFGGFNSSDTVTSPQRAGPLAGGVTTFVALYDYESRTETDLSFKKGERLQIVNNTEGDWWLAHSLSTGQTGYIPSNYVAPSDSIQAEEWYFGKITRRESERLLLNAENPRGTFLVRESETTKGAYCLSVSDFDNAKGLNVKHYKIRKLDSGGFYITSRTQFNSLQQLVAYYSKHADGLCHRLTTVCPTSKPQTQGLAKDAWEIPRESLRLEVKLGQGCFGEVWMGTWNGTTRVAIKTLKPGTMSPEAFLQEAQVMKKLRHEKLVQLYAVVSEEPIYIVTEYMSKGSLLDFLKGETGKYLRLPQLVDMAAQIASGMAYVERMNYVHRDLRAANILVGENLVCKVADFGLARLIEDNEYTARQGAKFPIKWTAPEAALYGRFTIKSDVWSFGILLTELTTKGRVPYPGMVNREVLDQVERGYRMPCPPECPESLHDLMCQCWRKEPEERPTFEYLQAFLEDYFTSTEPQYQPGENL", "test": "Src tyrosine kinase activity, poly E4Y / 32P-ATP phosphorylation assay", "assay_type": "biochemical", "method": "Recombinant human Src was expressed using the baculovirus-insect cell system and purified as published (Budde et al., 1993 and 2000).\nThe tyrosine kinase activity of Src, Csk and FGFr was determined using poly E4Y and ^32P-ATP. Briefly, enzymes were assayed in a reaction mixture consisting of 0.15 M EPPS-NaOH (pH 8.0) with 6 mM MgCl2, 0.2 mM γ^32P-ATP (0.2-0.4 mCi/μmol), 10% glycerol, 0.1% Triton X-100, and poly E4Y. Poly E4Y is a synthetic peptide whose phosphorylation is measured in this assay by the addition of the radioactively labeled phosphate from the ATP (Budde et al., 1995). […] When ATP was varied (0, 50, 100 and 250 μM), poly E4Y was kept constant at 150 μg/ml.", "key": {"[1]": {"conditions": "Table 3, compound at 15 μg/mL, read-out: % Inhibition at 15 μg/mL Src (%)"}, "[2]": {"conditions": "poly E4Y / 32P-ATP, Formula IV compounds"}, "[3]": {"conditions": "Table 6, Formula V compounds, compound at 15 μg/mL, read-out: % Inhibition at 15 μg/mL Src (%)"}, "[4]": {"conditions": "compound at 15 μg/mL, read-out: % Inhibition at 15 μg/mL Src %"}, "[5]": {"conditions": "Table 3, Formula II compounds, NI = no inhibition at 100 μg/mL"}}, "note": "Like-named read-outs stand apart in the source and are kept apart here.", "data": [{"molecule": "COc1ccc(Oc2ccc(NS(=O)(=O)c3cn(C)cn3)c(NS(=O)(=O)c3ccc(C)cc3)c2)cc1", "note": "[Compound 22s, N-[4-(4-methoxy-phenoxy)-2-(4-toluenesulfonylamino)-phenyl]-1-methyl-1H-imidazole-4-sulfonamide]", "values": [{"measurement": "inhibition at 15 µg/mL", "setting": "[1]", "result": 3, "unit": "%"}]}, {"molecule": "COc1ccc(Oc2ccc(NS(=O)(=O)c3ccc(C)cc3)c(NS(=O)(=O)c3cn(C)cn3)c2)cc1", "note": "[Compound 22o, N-[5-(4-methoxy-phenoxy)-2-(4-toluenesulfonylamino)-phenyl]-1-methyl-1H-imidazole-4-sulfonamide]", "values": [{"measurement": "inhibition at 15 µg/mL", "setting": "[1]", "result": 0, "unit": "%"}]}, {"molecule": "COc1ccc(Oc2ccc(NS(=O)(=O)c3ccc(C)cc3)c(CNS(=O)(=O)c3ccc(C)cc3)c2)cc1", "note": "[Compound 71m, N-[4-(4-methoxy-phenoxy)-2-(4-toluenesulfonylamino-methyl)-phenyl]-4-toluenesulfonamide]", "values": [{"measurement": "IC50", "setting": "[2]", "result": 136, "unit": "µM"}]}, {"molecule": "COc1ccc(Oc2ccc3c(c2)n(S(=O)(=O)c2ccc(C)cc2)c(=O)n3S(=O)(=O)c2ccc(C)cc2)cc1", "note": "[Compound 72c, 5-(4-methoxy-phenoxy)-1,3-bis-(4-toluenesulfonyl)-1,3-dihydro-benzoimidazol-2-one]", "values": [{"measurement": "inhibition at 15 µg/mL", "setting": "[3]", "result": 22, "unit": "%"}]}, {"molecule": "COc1ccc(OCc2ccc(CNC(=O)c3ccc(C)cc3)c(NS(=O)(=O)c3ccc(C)cc3)c2)cc1", "note": "[Compound 71ff, N-[4-(4-methoxy-phenoxymethyl)-2-(4-toluenesulfonylamino)-benzyl]-4-toluamide]", "values": [{"measurement": "inhibition at 15 µg/mL", "setting": "[4]", "result": 4, "unit": "%"}]}, {"molecule": "COc1ccc(Oc2ccc(NCc3cc4ccccc4o3)c(NS(=O)(=O)c3ccc(C)cc3)c2)cc1", "note": "[Compound 71f, N-[2-[(benzofuran-2-ylmethyl)-amino]-5-(4-methoxy-phenoxy)-phenyl]-4-toluenesulfonamide]", "values": [{"measurement": "IC50", "setting": "[2]", "result": 627, "unit": "µM"}]}, {"molecule": "COc1ccc(CCNC(=O)c2ccc(NS(=O)(=O)c3ccc(C)cc3)c(NS(=O)(=O)c3ccc(C)cc3)c2)cc1", "note": "[Compound 22b, N-[2-(4-methoxy-phenyl)-ethyl]-3,4-bis-(4-toluenesulfonylamino)-benzamide]", "values": [{"measurement": "inhibition at 15 µg/mL", "setting": "[1]", "result": 25, "unit": "%"}]}, {"molecule": "COc1ccc(Oc2ccc3[nH]c(=O)[nH]c3c2)cc1", "note": "[Compound 72e, 5-(4-methoxy-phenoxy)-1,3-dihydro-benzoimidazol-2-one]", "values": [{"measurement": "inhibition at 15 µg/mL", "setting": "[3]", "result": 4, "unit": "%"}]}, {"molecule": "COc1ccc(Oc2ccc(NC(=O)c3ccc(C#N)nc3)c(NS(=O)(=O)c3ccc(C)cc3)c2)cc1", "note": "[Compound 71b, 6-cyano-N-[4-(4-methoxy-phenoxy)-2-(4-toluenesulfonylamino)-phenyl]-nicotinamide]", "values": [{"measurement": "inhibition at 15 µg/mL", "setting": "[4]", "result": 0, "unit": "%"}]}, {"molecule": "Cc1ccc(S(=O)(=O)Nc2cc(NCc3ccccn3)c([N+](=O)[O-])cc2NS(=O)(=O)c2ccc(C)cc2)cc1", "note": "[Compound 9e, N-[5-nitro-4-[(pyridin-2-ylmethyl)-amino]-2-(4-toluenesulfonylamino)-phenyl]-4-toluenesulfonamide]", "values": [{"measurement": "inhibition at 15 µg/mL", "setting": "Table 2, compound at 15 ug/mL, read-out: % Inhibition at 15 ug/mL Src (%)", "result": 15, "unit": "%"}]}, {"molecule": "COc1ccc(Oc2ccc(NS(=O)(=O)c3ccc(C)cc3)c(NS(=O)(=O)c3ccc(S(C)(=O)=O)cc3)c2)cc1", "note": "[Compound 22ff, 4-methanesulfonyl-N-[5-(4-methoxy-phenoxy)-2-(4-toluenesulfonylamino)-phenyl]-benzenesulfonamide]", "values": [{"measurement": "inhibition at 15 µg/mL", "setting": "[1]", "result": 2, "unit": "%"}]}, {"molecule": "COc1ccc(Oc2cc(NS(=O)(=O)c3ccc(C)cc3)c(NS(=O)(=O)c3ccc(C)cc3)cc2C(=O)O)cc1", "note": "[Compound 34, 2-(4-methoxy-phenoxy)-4,5-bis-(4-toluenesulfonylamino)-benzoic acid]", "values": [{"measurement": "IC50", "setting": "Table 4, Formula III compounds, NI = no inhibition at 100 μg/mL", "result": 77, "unit": "µM"}]}, {"molecule": "Cc1ccc(S(=O)(=O)Nc2ccc(NS(=O)(=O)c3cccs3)cc2NS(=O)(=O)c2ccc(C)cc2)cc1", "note": "[Compound 22i, N-[3,4-bis-(4-toluenesulfonylamino)-phenyl]-thiophene-2-sulfonamide]", "values": [{"measurement": "inhibition at 15 µg/mL", "setting": "[1]", "result": 26, "unit": "%"}]}, {"molecule": "Cc1ccc(S(=O)(=O)Nc2ccc(OCCCCCCCCO)cc2NS(=O)(=O)c2ccc(C)cc2)cc1", "note": "[Compound 12dd, N-[4-(8-hydroxy-octyloxy)-2-(4-toluenesulfonylamino)-phenyl]-4-toluenesulfonamide]", "values": [{"measurement": "inhibition at 15 µg/mL", "setting": "[1]", "result": 36, "unit": "%"}]}, {"molecule": "Cc1ccc(S(=O)(=O)Nc2cc(NCc3cccnc3)c([N+](=O)[O-])cc2NS(=O)(=O)c2ccc(C)cc2)cc1", "note": "[Compound 9d, N-[5-nitro-4-[(pyridin-3-ylmethyl)-amino]-2-(4-toluenesulfonylamino)-phenyl]-4-toluenesulfonamide]", "values": [{"measurement": "IC50", "setting": "Table 2, Formula I compounds, NI = no inhibition at 100 μg/mL", "result": "> 176", "unit": "µM"}, {"measurement": "inhibition at 50 µg/mL", "setting": "Table 2, compound at 50 μg/mL (starred values), read-out: % Inhibition Src (%), * = assayed at 50 μg/mL", "result": 19, "unit": "%"}]}, {"molecule": "COc1ccc(Oc2ccc(NS(=O)(=O)c3ccc(C)cc3)c(N(C)S(=O)(=O)c3ccc(C)cc3)c2)cc1", "note": "[Compound 71dd, N-[4-(4-methoxy-phenoxy)-2-(4-toluenesulfonyl-methyl-amino)-phenyl]-4-toluenesulfonamide]", "values": [{"measurement": "IC50", "setting": "[2]", "result": 172, "unit": "µM"}]}, {"molecule": "Cc1ccc(S(=O)(=O)Nc2ccc(CO)cc2NS(=O)(=O)c2ccc(C)cc2)cc1", "note": "[Compound 22l]", "values": [{"measurement": "% Inhibition at 15 μg/mL Src (%)", "setting": "Table 3, compound at 15 μg/mL", "result": 5, "unit": "%"}]}, {"molecule": "COc1ccc(Oc2ccc(NS(=O)(=O)c3cccc4cnccc34)c(NS(=O)(=O)c3ccc(C)cc3)c2)cc1", "note": "[Compound 22cc, N-[4-(4-methoxy-phenoxy)-2-(4-toluenesulfonylamino)-phenyl]-isoquinoline-5-sulfonamide]", "values": [{"measurement": "IC50", "setting": "[5]", "result": 45, "unit": "µM"}]}, {"molecule": "Cc1ccc(S(=O)(=O)Nc2ccc(C(=O)Nc3ccccc3)cc2NS(=O)(=O)c2ccc(C)cc2)cc1", "note": "[Compound 22e, N-phenyl-3,4-bis-(4-toluenesulfonylamino)-benzamide]", "values": [{"measurement": "IC50", "setting": "[5]", "result": 149, "unit": "µM"}]}, {"molecule": "COC(=O)c1c(S(=O)(=O)Nc2ccc(Oc3ccc(OC)cc3)cc2NS(=O)(=O)c2ccc(C)cc2)c(C)n(C)c1C", "note": "[Compound 22w, methyl 4-[4-(4-methoxy-phenoxy)-2-(4-toluenesulfonylamino)-phenylsulfamoyl]-1,2,5-trimethyl-1H-pyrrole-3-carboxylate]", "values": [{"measurement": "inhibition at 15 µg/mL", "setting": "[1]", "result": 6, "unit": "%"}]}, {"molecule": "COc1ccc(Oc2ccc(NC(=O)c3ccc(C(F)(F)F)nc3)c(NS(=O)(=O)c3ccc(C)cc3)c2)cc1", "note": "[Compound 71c, N-[4-(4-methoxy-phenoxy)-2-(4-toluenesulfonylamino)-phenyl]-6-trifluoromethyl-nicotinamide]", "values": [{"measurement": "inhibition at 15 µg/mL", "setting": "[4]", "result": 5, "unit": "%"}]}, {"molecule": "CCc1ccc(NS(=O)(=O)c2ccc(OC)cc2NS(=O)(=O)c2ccc(C)cc2)cc1", "note": "[Compound 71mm, N-(4-ethyl-phenyl)-4-methoxy-2-(4-toluenesulfonylamino)-benzenesulfonamide]", "values": [{"measurement": "inhibition at 15 µg/mL", "setting": "[4]", "result": 19, "unit": "%"}]}, {"molecule": "Nc1cc(SCc2ccccc2Cl)c([N+](=O)[O-])cc1NS(=O)(=O)c1ccc(Cl)c2nonc12", "note": "[Compound 71ll, N-[2-amino-4-(2-chloro-benzylsulfanyl)-5-nitro-phenyl]-7-chloro-benzo[1,2,5]oxadiazole-4-sulfonamide]", "values": [{"measurement": "inhibition at 15 µg/mL", "setting": "[4]", "result": 26, "unit": "%"}]}, {"molecule": "COc1ccc(Oc2ccc(NS(=O)(=O)c3ccc(C)cc3)c(N=Cc3ccc4ccccc4n3)c2)cc1", "note": "[Compound 71u, N-{4-(4-methoxy-phenoxy)-2-[(quinolin-2-ylmethylene)-amino]-phenyl}-4-toluenesulfonamide]", "values": [{"measurement": "inhibition at 15 µg/mL", "setting": "[4]", "result": 6, "unit": "%"}]}, {"molecule": "COc1ccc(Oc2ccc(NS(=O)(=O)CCc3cccc4ccccc34)c(NS(=O)(=O)c3ccc(C)cc3)c2)cc1", "note": "[Compound 22y, N-[5-(4-methoxy-phenoxy)-2-(2-naphthalen-1-yl-ethanesulfonylamino)-phenyl]-4-toluenesulfonamide]", "values": [{"measurement": "IC50", "setting": "[5]", "result": 20, "unit": "µM"}]}, {"molecule": "COc1ccc(Oc2ccc(NS(=O)(=O)c3ccc(C)cc3)c(NCc3ccc(C)cc3)c2)cc1", "note": "[Compound 71hh, N-[4-(4-methoxy-phenoxy)-2-(4-methyl-benzylamino)-phenyl]-4-toluenesulfonamide]", "values": [{"measurement": "inhibition at 15 µg/mL", "setting": "[4]", "result": 23, "unit": "%"}]}]}
